Values joined by “and” are separate entries in the source; they are usually repeats but may differ in a detail not shown here. Identical values can stand only once.
Key:
Assay in all cases: radiometric filter-binding kinase assay, Kinaseprofiler
ALK (human) = ALK (human) (UniProt Q9UM73); conditions: ATP 200 µM
BTK (human) = BTK (human) (UniProt Q06187); conditions: ATP 200 µM
CAMK1D (human) = CAMK1D (human) (UniProt Q8IU85); conditions: ATP 15 µM
CHEK2 (human) = CHEK2 (human) (UniProt O96017); conditions: ATP 70 µM
DAPK1 (human) = DAPK1 (human) (UniProt P53355); conditions: ATP 70 µM
DAPK3 (human) = DAPK3 (human) (UniProt O43293); conditions: ATP 15 µM
DYRK2 (human) = DYRK2 (human) (UniProt Q92630); conditions: ATP 15 µM
EPHA5 (human) = EPHA5 (human) (UniProt P54756); conditions: ATP 10 µM
Chain of EPHA5 (human) (P54756 whole entry, looked up): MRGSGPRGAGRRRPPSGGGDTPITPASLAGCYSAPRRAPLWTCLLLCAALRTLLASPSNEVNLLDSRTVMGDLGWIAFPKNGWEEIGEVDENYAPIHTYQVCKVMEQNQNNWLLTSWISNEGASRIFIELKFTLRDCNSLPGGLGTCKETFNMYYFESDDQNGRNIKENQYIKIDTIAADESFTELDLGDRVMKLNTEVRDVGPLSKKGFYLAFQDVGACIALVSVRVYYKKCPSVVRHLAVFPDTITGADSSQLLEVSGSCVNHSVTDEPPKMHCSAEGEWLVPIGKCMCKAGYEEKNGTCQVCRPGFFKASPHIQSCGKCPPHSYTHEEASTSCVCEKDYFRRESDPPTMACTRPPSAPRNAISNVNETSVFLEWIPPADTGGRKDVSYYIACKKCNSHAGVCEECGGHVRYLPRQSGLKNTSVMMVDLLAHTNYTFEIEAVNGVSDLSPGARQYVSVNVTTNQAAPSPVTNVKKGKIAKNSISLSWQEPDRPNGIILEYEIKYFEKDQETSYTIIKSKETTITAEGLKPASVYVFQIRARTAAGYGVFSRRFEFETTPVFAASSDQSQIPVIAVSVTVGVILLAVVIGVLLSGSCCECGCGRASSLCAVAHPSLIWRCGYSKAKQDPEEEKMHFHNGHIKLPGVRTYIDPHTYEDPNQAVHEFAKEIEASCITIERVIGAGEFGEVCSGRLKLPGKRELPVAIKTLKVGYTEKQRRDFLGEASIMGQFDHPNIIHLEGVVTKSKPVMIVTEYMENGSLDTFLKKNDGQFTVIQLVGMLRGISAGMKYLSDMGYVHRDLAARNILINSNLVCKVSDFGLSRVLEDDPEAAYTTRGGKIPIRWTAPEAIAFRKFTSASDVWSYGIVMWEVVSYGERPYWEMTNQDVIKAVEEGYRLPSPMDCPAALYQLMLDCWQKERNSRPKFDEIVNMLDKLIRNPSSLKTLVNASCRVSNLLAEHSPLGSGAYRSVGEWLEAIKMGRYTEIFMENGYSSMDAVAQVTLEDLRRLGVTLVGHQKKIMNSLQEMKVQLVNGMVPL

FLT3 (human) = FLT3 (human) (UniProt P36888); conditions: ATP 200 µM
FYN (human) = FYN (human) (UniProt P06241); conditions: ATP 70 µM
Chain of FYN (human) (P06241 whole entry, looked up): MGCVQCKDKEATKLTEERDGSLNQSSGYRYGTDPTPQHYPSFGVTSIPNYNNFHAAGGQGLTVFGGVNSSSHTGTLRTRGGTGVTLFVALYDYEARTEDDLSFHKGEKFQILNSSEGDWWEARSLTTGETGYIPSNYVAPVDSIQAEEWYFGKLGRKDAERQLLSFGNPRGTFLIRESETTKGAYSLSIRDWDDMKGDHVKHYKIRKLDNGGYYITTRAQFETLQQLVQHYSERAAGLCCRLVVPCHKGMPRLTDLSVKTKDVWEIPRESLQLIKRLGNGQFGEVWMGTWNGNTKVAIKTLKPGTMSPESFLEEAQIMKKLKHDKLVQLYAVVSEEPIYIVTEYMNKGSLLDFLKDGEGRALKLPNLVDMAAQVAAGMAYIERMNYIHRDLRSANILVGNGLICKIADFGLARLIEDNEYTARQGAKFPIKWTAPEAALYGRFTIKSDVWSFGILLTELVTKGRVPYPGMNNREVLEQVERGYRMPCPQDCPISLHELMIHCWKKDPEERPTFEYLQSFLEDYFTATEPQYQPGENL

INSRR (human) = INSRR (human) (UniProt P14616); conditions: ATP 200 µM
[1] = molecular target: JAK2 JH1 catalytic (human) (UniProt O60674); conditions: ATP 45 µM
[2] = molecular target: JAK3 JH1 catalytic (human) (UniProt P52333); conditions: ATP 10 µM
KIT (human) = KIT (human) (UniProt P10721); conditions: ATP 200 µM
LCK (human) = LCK (human) (UniProt P06239); conditions: ATP 90 µM
Chain of LCK (human) (P06239 whole entry, looked up): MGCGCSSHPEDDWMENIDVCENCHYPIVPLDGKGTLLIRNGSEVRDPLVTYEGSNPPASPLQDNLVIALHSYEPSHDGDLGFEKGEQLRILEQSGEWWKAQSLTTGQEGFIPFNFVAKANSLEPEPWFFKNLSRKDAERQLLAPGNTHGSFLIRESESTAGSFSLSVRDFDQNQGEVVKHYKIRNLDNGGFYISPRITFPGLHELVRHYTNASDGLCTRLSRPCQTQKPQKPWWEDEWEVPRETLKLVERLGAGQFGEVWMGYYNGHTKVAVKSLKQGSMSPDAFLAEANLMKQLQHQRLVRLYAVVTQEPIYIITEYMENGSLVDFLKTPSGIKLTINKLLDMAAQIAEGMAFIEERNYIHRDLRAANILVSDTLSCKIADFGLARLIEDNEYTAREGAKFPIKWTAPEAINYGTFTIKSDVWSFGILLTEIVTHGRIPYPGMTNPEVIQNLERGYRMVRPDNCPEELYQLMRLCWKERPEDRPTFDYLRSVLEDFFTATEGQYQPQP

MAP3K5 (human) = MAP3K5 (human) (UniProt Q99683); conditions: ATP 200 µM
MAPK3 (human) = MAPK3 (human) (UniProt P27361); conditions: ATP 70 µM
NLK (human) = NLK (human) (UniProt Q9UBE8); conditions: ATP 200 µM
NTRK2 (human) = NTRK2 (human) (UniProt Q16620); conditions: ATP 90 µM
Chain of NTRK2 (human) (Q16620 whole entry, looked up): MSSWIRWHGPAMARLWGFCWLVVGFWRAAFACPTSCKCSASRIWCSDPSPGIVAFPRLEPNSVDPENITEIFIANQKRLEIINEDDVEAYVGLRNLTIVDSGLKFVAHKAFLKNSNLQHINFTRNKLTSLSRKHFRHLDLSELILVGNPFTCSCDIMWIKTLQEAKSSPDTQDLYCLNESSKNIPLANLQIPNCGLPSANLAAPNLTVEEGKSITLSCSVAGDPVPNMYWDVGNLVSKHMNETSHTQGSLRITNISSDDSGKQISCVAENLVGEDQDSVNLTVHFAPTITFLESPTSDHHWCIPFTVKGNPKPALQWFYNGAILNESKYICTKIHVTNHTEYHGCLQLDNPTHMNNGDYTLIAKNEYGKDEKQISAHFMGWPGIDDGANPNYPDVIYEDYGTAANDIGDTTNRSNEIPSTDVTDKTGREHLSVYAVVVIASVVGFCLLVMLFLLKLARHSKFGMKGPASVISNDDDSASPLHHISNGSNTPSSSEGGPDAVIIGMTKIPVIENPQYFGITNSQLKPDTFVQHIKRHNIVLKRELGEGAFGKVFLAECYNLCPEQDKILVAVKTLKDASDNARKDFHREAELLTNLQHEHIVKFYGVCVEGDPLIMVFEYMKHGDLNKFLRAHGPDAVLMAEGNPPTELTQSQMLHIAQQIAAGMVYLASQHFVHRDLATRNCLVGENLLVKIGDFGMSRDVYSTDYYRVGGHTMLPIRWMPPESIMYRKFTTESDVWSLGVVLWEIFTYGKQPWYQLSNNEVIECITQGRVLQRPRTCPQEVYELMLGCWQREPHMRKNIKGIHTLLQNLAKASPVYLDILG

PIM3 (human) = PIM3 (human) (UniProt Q86V86); conditions: ATP 155 µM
PLK2 (human) = PLK2 (human) (UniProt Q9NYY3); conditions: ATP 120 µM
Chain of PLK2 (human) (Q9NYY3 whole entry, looked up): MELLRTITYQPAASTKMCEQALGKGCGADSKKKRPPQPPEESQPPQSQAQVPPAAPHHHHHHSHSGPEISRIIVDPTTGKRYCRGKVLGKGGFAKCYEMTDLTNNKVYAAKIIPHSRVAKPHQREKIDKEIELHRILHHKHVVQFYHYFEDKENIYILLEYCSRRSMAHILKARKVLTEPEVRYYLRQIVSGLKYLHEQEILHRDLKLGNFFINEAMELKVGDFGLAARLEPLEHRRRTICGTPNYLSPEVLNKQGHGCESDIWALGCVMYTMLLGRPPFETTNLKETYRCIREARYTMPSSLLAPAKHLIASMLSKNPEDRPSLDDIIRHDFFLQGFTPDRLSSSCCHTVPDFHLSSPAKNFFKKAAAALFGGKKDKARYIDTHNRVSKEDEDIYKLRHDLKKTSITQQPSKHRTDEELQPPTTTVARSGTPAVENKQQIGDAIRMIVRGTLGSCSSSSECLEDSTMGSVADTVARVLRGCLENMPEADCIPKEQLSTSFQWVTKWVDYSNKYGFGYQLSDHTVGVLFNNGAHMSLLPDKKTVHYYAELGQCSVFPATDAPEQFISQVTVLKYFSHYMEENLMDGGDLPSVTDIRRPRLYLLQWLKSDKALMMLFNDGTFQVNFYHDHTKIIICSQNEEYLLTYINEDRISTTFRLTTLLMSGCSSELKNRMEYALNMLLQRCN

PRKG1 (human) = PRKG1 (human) (UniProt Q13976); conditions: ATP 90 µM
Chain of PRKG1 (human) (Q13976 whole entry, looked up): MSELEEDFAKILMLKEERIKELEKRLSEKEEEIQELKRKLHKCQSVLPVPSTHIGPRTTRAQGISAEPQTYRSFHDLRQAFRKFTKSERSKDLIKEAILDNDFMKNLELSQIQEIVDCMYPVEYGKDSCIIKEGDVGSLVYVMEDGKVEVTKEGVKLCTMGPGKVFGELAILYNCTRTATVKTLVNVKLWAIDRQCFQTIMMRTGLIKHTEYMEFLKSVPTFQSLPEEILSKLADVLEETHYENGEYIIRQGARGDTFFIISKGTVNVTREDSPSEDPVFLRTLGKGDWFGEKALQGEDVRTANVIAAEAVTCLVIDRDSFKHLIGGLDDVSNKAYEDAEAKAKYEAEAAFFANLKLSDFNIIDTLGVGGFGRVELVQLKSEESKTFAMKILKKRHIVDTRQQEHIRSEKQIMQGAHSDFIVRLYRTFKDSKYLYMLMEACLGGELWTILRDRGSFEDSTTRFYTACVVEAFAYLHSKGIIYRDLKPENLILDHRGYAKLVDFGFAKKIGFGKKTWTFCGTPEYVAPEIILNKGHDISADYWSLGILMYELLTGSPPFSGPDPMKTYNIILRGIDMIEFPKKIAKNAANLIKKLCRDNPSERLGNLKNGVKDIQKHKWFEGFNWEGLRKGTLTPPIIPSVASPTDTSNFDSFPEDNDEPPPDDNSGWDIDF

RIPK2 (human) = RIPK2 (human) (UniProt O43353); conditions: ATP 120 µM
ROCK2 (human) = ROCK2 (human) (UniProt O75116); conditions: ATP 15 µM
RPS6KA5 KD1 KD2 (human) = RPS6KA5 KD1 KD2 (human) (UniProt O75582); conditions: ATP 90 µM
SGK3 (human) = SGK3 (human) (UniProt Q96BR1); conditions: ATP 155 µM
SRC (human) = SRC (human) (UniProt P12931); conditions: ATP 200 µM
STK11 (human) = STK11 (human) (UniProt Q15831); conditions: ATP 155 µM
STK3 (human) = STK3 (human) (UniProt Q13188); conditions: ATP 155 µM
TBK1 (human) = TBK1 (human) (UniProt Q9UHD2); conditions: ATP 155 µM
TXK (human) = TXK (human) (UniProt P42681); conditions: ATP 200 µM
ULK2 (human) = ULK2 (human) (UniProt Q8IYT8); conditions: ATP 15 µM
WNK3 (human) = WNK3 (human) (UniProt Q9BYP7); conditions: ATP 200 µM

Chain of CAMK1D (human) (Q8IU85 whole entry, looked up): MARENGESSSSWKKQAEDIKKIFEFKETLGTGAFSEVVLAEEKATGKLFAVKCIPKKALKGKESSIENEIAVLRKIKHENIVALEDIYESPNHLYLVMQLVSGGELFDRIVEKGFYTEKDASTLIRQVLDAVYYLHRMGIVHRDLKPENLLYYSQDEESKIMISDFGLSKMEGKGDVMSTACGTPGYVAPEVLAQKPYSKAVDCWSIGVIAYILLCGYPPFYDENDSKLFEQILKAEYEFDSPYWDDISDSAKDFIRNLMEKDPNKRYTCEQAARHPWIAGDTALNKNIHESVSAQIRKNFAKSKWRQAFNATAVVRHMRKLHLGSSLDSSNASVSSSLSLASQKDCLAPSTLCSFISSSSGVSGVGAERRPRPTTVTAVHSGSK

SMILES: O=C1Nc2ccccc2/C1=C1\Nc2ccccc2\C1=N/O
- residual activity (ALK (human); compound 1.0 µM): 52%
- residual activity (ALK (human); compound 10.0 µM): 18%
- residual activity (BTK (human); compound 1.0 µM): 31%
- residual activity (BTK (human); compound 10.0 µM): 4%
- residual activity (CAMK1D (human); compound 1.0 µM): 71%
- residual activity (CAMK1D (human); compound 10.0 µM): 56%
- residual activity (CHEK2 (human); compound 1.0 µM): 13%
- residual activity (CHEK2 (human); compound 10.0 µM): 2%
- residual activity (DAPK1 (human); compound 1.0 µM): 91%
- residual activity (DAPK1 (human); compound 10.0 µM): 67%
- residual activity (DAPK3 (human); compound 1.0 µM): 81%
- residual activity (DAPK3 (human); compound 10.0 µM): 37%
- residual activity (DYRK2 (human); compound 1.0 µM): 79%
- residual activity (DYRK2 (human); compound 10.0 µM): 20%
- residual activity (EPHA5 (human); compound 1.0 µM): 59%
- residual activity (EPHA5 (human); compound 10.0 µM): 9%
- residual activity (FLT3 (human); compound 1.0 µM): 1%
- residual activity (FLT3 (human); compound 10.0 µM): 0%
- residual activity (FYN (human); compound 1.0 µM): 5%
- residual activity (FYN (human); compound 10.0 µM): 0%
- residual activity (INSRR (human); compound 1.0 µM): 2%
- residual activity (INSRR (human); compound 10.0 µM): 1%
- residual activity ([1]; compound 1.0 µM): 92%
- residual activity ([1]; compound 10.0 µM): 11%
- residual activity ([2]; compound 1.0 µM): 21%
- residual activity ([2]; compound 10.0 µM): 2%
- residual activity (KIT (human); compound 1.0 µM): 20%
- residual activity (KIT (human); compound 10.0 µM): 2%
- residual activity (LCK (human); compound 1.0 µM): 13% and 22%
- residual activity (LCK (human); compound 10.0 µM): 6% and 17%
- residual activity (MAP3K5 (human); compound 1.0 µM): 52%
- residual activity (MAP3K5 (human); compound 10.0 µM): 7%
- residual activity (MAPK3 (human); compound 1.0 µM): 114%
- residual activity (MAPK3 (human); compound 10.0 µM): 101%
- residual activity (NLK (human); compound 1.0 µM): 82%
- residual activity (NLK (human); compound 10.0 µM): 67%
- residual activity (NTRK2 (human); compound 1.0 µM): 0%
- residual activity (NTRK2 (human); compound 10.0 µM): 0%
- residual activity (PIM3 (human); compound 1.0 µM): 94%
- residual activity (PIM3 (human); compound 10.0 µM): 90%
- residual activity (PLK2 (human); compound 1.0 µM): 97%
- residual activity (PLK2 (human); compound 10.0 µM): 82%
- residual activity (PRKG1 (human); compound 1.0 µM): 79% and 77%
- residual activity (PRKG1 (human); compound 10.0 µM): 45% and 67%
- residual activity (RIPK2 (human); compound 1.0 µM): 60%
- residual activity (RIPK2 (human); compound 10.0 µM): 27%
- residual activity (ROCK2 (human); compound 1.0 µM): 85%
- residual activity (ROCK2 (human); compound 10.0 µM): 82%
- residual activity (RPS6KA5 KD1 KD2 (human); compound 1.0 µM): 61%
- residual activity (RPS6KA5 KD1 KD2 (human); compound 10.0 µM): 21%
- residual activity (SGK3 (human); compound 1.0 µM): 89%
- residual activity (SGK3 (human); compound 10.0 µM): 56%
- residual activity (SRC (human); compound 1.0 µM): 35%
- residual activity (SRC (human); compound 10.0 µM): 5%
- residual activity (STK11 (human); compound 1.0 µM): 83%
- residual activity (STK11 (human); compound 10.0 µM): 44%
- residual activity (STK3 (human); compound 1.0 µM): 6%
- residual activity (STK3 (human); compound 10.0 µM): 0%
- residual activity (TBK1 (human); compound 1.0 µM): 9%
- residual activity (TBK1 (human); compound 10.0 µM): 1%
- residual activity (TXK (human); compound 1.0 µM): 45%
- residual activity (TXK (human); compound 10.0 µM): 11%
- residual activity (ULK2 (human); compound 1.0 µM): 93%
- residual activity (ULK2 (human); compound 10.0 µM): 59%
- residual activity (WNK3 (human); compound 1.0 µM): 89%
- residual activity (WNK3 (human); compound 10.0 µM): 60%

From the kinase profiling compilation of Christmann-Franck et al. (2016)
